Measurements reported in patent US20240002326A1, “COMPOUNDS AND USE THEREOF IN METHODS OF TREATMENT” (The University of Queensland, priority 2016, published 2024).

What was measured:
SOX18-SOX18 homodimer = SOX18-SOX18 homodimer (Homo sapiens (Human), UniProt P35713); assay: ALPHAScreen SOX18-SOX18 homodimerization; assay type: binding; conditions: 5 uM
Experimental: ALPHAScreen was performed as previously described (Sierecki et al., 2014, Sierecki et al., 2013), using the cMyc detection kit and Proxiplate-384 Plus plates (PerkinElmer). The LTE lysate co-expressing the proteins of interest was diluted in buffer A (25 mM HEPES, 50 mM NaCl). For the assay, 12.5 μL (0.4 μg) of Anti-cMyc coated Acceptor Beads in buffer B (25 mM HEPES, 50 mM NaCl, 0.001% NP40, 0.001% casein) were aliquoted into each well. This was followed by the addition of 2 μL of diluted sample, at different concentration, and 2 μL of biotin labeled GFP-Nanotrap in buffer A. The plates were incubated for 45 min at room temperature, then adding 2 μL (0.4 μg) of streptavidin-coated Donor Beads diluted in buffer A, and incubation in the dark for 45 min at room temperature. The ALPHAScreen signal was measured on an Envision Plate Reader (PerkinElmer), using manufacturer's recommended settings (λexc=680/30 nm for 0.18 s, λem=570/100 nm after 37 ms). The resulting bell-shaped curve is an indication of a positive interaction, while a flat line reflects a lack of interaction between the proteins. The measurement of each protein pair was repeated in triplicate.
I is the highest signal level (top of the hook effect curve) and Ineg is the lowest (background) signal level. The signals were normalized to the Iref signal obtained for the strongest interaction. […] Percentage of interaction was calculated as: […]
The ALPHA-Screen Assay was performed as previously described (Sierecki et al. 2014), using the cMyc detection kit and Proxiplate-384 Plus plates (PerkinElmer). A serial dilution of each sample was measured. The LTE lysate co-expressing the proteins of interest was diluted in buffer A (25 mM HEPES, 50 mM NaCl). For the assay, 12.5 μL (0.4 μg) of Anti-cMyc coated Acceptor Beads in buffer B (25 mM HEPES, 50 mM NaCl, 0.001% NP40, casein) were aliquoted into each well. This was followed by the addition of 2 μL of diluted sample and 2 μL of biotin labeled GFP-Nanotrap in buffer A. The plate was incubated for 45 min at RT. Afterward, 2 μL (0.4 μg) of Streptavidin coated Donor Beads diluted in buffer A, were added, followed by incubation in the dark for 45 min at RT. The ALPHA-Screen signal was obtained on an Envision Multilabel Plate Reader (PerkinElmer), using the manufacturer's recommended settings (excitation: 680/30 nm for 0.18 s, emission: 570/100 nm after 37 ms). The resulting bell-shaped curve is an indication of a positive interaction, while a flat line reflects a lack of interaction between the proteins. The measurement of each protein pair was repeated a minimum of three times using separate plates. The Binding Index was calculated as: BI=[(I−I_neg)/(I_ref−I_neg)]×100
For PPI disruption assay, protein pairs expressed in LTE were incubated for 1 h with 100 μM Sm4 or DMSO alone (0.7% DMSO final). 100 μM Sm4 or DMSO was also added to buffer B. PPI disruption was calculated as: (1−I_Sm4/I_DMSO)×100.
For IC50 determination, the assay was identical but a dilution range of Sm4 was used (0.3 to 300 μM). Percentage of interaction was calculated as: I_Sm4/1 DMSO×100. Data from at least 3 independent experiments were fitted in GraphPad Prism (RRID: SCR_007370) version 6.0 using 3-parameter non-linear regression.

SOX18[109] HMG fragment = SOX18[109] HMG fragment (Mus musculus (Mouse), UniProt P43680); assay: FP DNA-binding competition assay, SOX18[109] HMG fragment; conditions: for remaining activity at 50 µM: read-out: FP bound fraction (%) 50 μM; for remaining activity at 200 µM: read-out: FP bound fraction (%) 200 μM
How it was run: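 Fluorescence polarization competition using mouse SOX18[109] fragment (residues 69-177, HMG box plus flanks) at 60 nM with 5 nM 5′-FAM 40 bp Prox1 DNA in 10 mM Tris pH 8.0, 100 mM NaCl, 2-3.33% DMSO. Agitated 5 min RT, 10 min 37° C, 30 min RT, then read (ex 485/em 525 nm), triplicates.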

Sequence of SOX18-SOX18 homodimer (P35713 whole entry): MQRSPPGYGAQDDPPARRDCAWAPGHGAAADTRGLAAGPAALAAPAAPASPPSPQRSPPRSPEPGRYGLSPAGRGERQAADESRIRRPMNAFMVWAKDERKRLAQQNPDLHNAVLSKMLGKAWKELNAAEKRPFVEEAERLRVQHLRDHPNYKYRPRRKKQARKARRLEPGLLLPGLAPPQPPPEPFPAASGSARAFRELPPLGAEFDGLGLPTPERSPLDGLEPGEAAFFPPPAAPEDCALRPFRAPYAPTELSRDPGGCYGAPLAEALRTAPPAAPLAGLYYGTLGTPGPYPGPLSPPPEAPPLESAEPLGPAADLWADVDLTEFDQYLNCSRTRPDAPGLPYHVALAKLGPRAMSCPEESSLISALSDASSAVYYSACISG
Sequence of SOX18[109] HMG fragment (P43680 69-177): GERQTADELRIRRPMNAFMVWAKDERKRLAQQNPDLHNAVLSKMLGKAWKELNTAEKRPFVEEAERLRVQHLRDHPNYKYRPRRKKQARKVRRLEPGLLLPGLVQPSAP

Row | SMILES | inhibitory activity in respect of SOX18-SOX18 homodimerization (SOX18-SOX18 homodimer) | FP bound fraction (%) 50 μM (SOX18[109] HMG fragment; 50 μM, SOX18/DNA binding) [%] | FP bound fraction (%) 200 μM (SOX18[109] HMG fragment; 200 μM, SOX18/DNA binding) [%] | remaining activity at 50 µM (SOX18[109] HMG fragment; 50 μM, SOX18/DNA binding) [%] | remaining activity at 200 µM (SOX18[109] HMG fragment; 200 μM, SOX18/DNA binding) [%] | SOX18-DNA binding inhibition (FP, words) (SOX18[109] HMG fragment; SAR library, SOX18[109])
1 | CCN(CC)C(=O)c1c(O)cc(O)cc1CCc1ccc2ccccc2c1 [Sm26, N,N,diethyl-2,4-hydroxy-6-(2-(naphthalen-2-yl)ethyl)benzamide] | some inhibitory activity | 98.5 ± 5.9 | 128.3 ± 17.2 |  |  | 
2 | COc1cc(C)cc(/C=C/c2ccc3ccccc3c2)c1C(=O)O [Sm34, (E)-2-methoxy-4-methyl-6-(2-(naphthalen-2-yl)vinyl)benzoic acid] | some inhibitory activity |  |  | 94.2 ± 1.9 | 101 ± 1.5 | 
3 | Oc1cc(CCc2ccccc2)cc(O)c1O [Sm40, 5-phenethylbenzene-1,2,3-triol] | some inhibitory activity |  |  | 101 ± 12.1 | 92.7 ± 14.7 | not active
